Experimental data published in publication PMC10041525, “New Dual Inhibitors of Bacterial Topoisomerases with Broad-Spectrum Antibacterial Activity and In Vivo Efficacy against Vancomycin-Intermediate Staphylococcus aureus” (Journal of Medicinal Chemistry, 2023).
Read-outs that look alike come from different tables or passages of the source.

System: 100 A. baumannii strains (50 MDR, 50 non-MDR)
Test: MIC broth microdilution at IHMA Europe, panel of 100 strains
Format: cell-based
Conditions: for MIC / MIC50 / MIC90: Acinetobacter baumannii; for MIC50: read-out: MIC 50; for MIC90: read-out: MIC 90

CO/N=C(\C(=O)N[C@@H]1C(=O)N2C(C(=O)[O-])=C(C[N+]3(C)CCCC3)CS[C@H]12)c1csc(N)n1 [Cefepime, cefepime]
1 µg/mL: MIC (A. baumannii IHMA 2180134, Malaysia 2020, Non-MDR, read-out: MIC) | MIC (A. baumannii IHMA 2183849, Argentina 2020, Non-MDR, read-out: MIC) | MIC (A. baumannii IHMA 2184382, Japan 2020, Non-MDR, read-out: MIC) | MIC (A. baumannii IHMA 2193485, Venezuela 2020, Non-MDR, read-out: MIC) | MIC (A. baumannii IHMA 2215307, Hong Kong 2020, Non-MDR, read-out: MIC) | MIC (A. baumannii IHMA 2223200, Colombia 2020, Non-MDR, read-out: MIC) | MIC (A. baumannii IHMA 2275237, Chile 2020, Non-MDR, read-out: MIC) | MIC50 (non-MDR n = 50)
0.5 µg/mL: MIC (A. baumannii IHMA 2206507, Taiwan 2020, Non-MDR, read-out: MIC) | MIC (A. baumannii IHMA 2239052, Thailand 2020, Non-MDR, read-out: MIC) | MIC (A. baumannii IHMA 2261633, Canada 2020, Non-MDR, read-out: MIC)
0%: Percentage S (MDR n = 50) | Percentage I (non-MDR n = 50) | Percentage R (non-MDR n = 50)
≤ 0.25 µg/mL: MIC (A. baumannii IHMA 2178574, Ukraine 2020, Non-MDR, read-out: MIC) | MIC (all isolates n = 100, read-out: MIN (minimum MIC)) | MIC (non-MDR n = 50, read-out: MIN (minimum MIC))
> 32 µg/mL: MIC (A. baumannii IHMA 2156634, Turkey 2020, MDR, read-out: MIC) | MIC (A. baumannii IHMA 2156709, Turkey 2020, MDR, read-out: MIC) | MIC (A. baumannii IHMA 2177489, Lithuania 2020, MDR, read-out: MIC) | MIC (A. baumannii IHMA 2180142, Malaysia 2020, MDR, read-out: MIC) | MIC (A. baumannii IHMA 2181370, Morocco 2020, MDR, read-out: MIC) | MIC (A. baumannii IHMA 2193375, Venezuela 2020, MDR, read-out: MIC) | MIC (A. baumannii IHMA 2193607, Venezuela 2020, MDR, read-out: MIC) | MIC (A. baumannii IHMA 2196959, South Africa 2020, MDR, read-out: MIC) | MIC (A. baumannii IHMA 2203763, Spain 2020, MDR, read-out: MIC) | MIC (A. baumannii IHMA 2206459, Taiwan 2020, MDR, read-out: MIC) | MIC (A. baumannii IHMA 2231797, Greece 2020, MDR, read-out: MIC) | MIC (A. baumannii IHMA 2233099, Guatemala 2020, MDR, read-out: MIC) | MIC (A. baumannii IHMA 2233430, Kazakhstan 2020, MDR, read-out: MIC) | MIC (A. baumannii IHMA 2238964, Thailand 2020, MDR, read-out: MIC) | MIC (A. baumannii IHMA 2274364, South Africa 2020, MDR, read-out: MIC) | MIC (A. baumannii IHMA 2275751, Jordan 2020, MDR, read-out: MIC) | MIC (A. baumannii IHMA 2316205, United States 2020, MDR, read-out: MIC) | MIC (MDR n = 50, read-out: MAX (maximum MIC; all strains inhibited)) | MIC50 (MDR n = 50) | MIC90 (MDR n = 50) | MIC (all isolates n = 100, read-out: MAX (maximum MIC; all strains inhibited)) | MIC90 (all isolates n = 100)
6%: Percentage I (MDR n = 50)
8 µg/mL: MIC50 (all isolates n = 100) | MIC (non-MDR n = 50, read-out: MAX (maximum MIC))
4 µg/mL: MIC (A. baumannii IHMA 2224303, Panama 2020, Non-MDR, read-out: MIC) | MIC90 (non-MDR n = 50)
50%: Percentage S (all n = 100, CLSI breakpoints)
32 µg/mL: MIC (A. baumannii IHMA 2177232, Lithuania 2020, MDR, read-out: MIC) | MIC (A. baumannii IHMA 2196914, South Africa 2020, MDR, read-out: MIC) | MIC (A. baumannii IHMA 2205144, Korea, South 2020, MDR, read-out: MIC) | MIC (A. baumannii IHMA 2216586, Taiwan 2020, MDR, read-out: MIC) | MIC (A. baumannii IHMA 2224017, Panama 2020, MDR, read-out: MIC) | MIC (A. baumannii IHMA 2274234, South Africa 2020, MDR, read-out: MIC)
47%: Percentage R (all n = 100, CLSI breakpoints)
3%: Percentage I (all n = 100, CLSI breakpoints)
